pIC50: −log10 of the molar value.
Tests used:
[1] = target: D-1 receptor; assay: D-1 receptor in carp retina (in vitro); settings: concentration of agonist required to inhibit the biochemical response by 50%, read-out: Fish retina D-1 receptor IC50
[2] = target: D-2 receptor (Rattus norvegicus, UniProt P61169)
D-2 receptor, sequence (P61169 whole entry): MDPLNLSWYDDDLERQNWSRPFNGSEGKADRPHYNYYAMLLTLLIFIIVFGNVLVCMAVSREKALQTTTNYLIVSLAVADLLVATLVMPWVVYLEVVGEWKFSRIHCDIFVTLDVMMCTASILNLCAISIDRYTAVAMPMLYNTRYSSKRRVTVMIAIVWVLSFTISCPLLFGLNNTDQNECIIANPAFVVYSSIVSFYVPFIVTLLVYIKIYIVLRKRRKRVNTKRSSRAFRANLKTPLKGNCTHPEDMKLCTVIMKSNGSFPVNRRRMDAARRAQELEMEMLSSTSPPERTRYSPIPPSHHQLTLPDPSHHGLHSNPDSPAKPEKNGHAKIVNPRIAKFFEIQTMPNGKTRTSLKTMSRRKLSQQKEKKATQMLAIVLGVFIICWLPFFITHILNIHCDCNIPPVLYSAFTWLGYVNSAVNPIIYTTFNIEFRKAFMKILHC

| SMILES | pIC50 [1] | times more potent than apomorphine at the D-2 receptor ([2]; relative to apomorphine) | times more potent than dopamine at the D-2 receptor ([2]; relative to dopamine) [times] |
| --- | --- | --- | --- |
| CN1CCc2cccc3c2[C@H]1Cc1ccc(O)c(O)c1-3 [Apomorphine, reference compound] | 5.82 | – | – |
| CCCN(CCc1ccccc1)C1CCc2c(O)cccc2C1 (stereo not shown) [PPHT, 2-(N-phenylethyl-N-propylamino)-5-hydroxytetralin] | 5.43 | approximately 40 times | 250 |
